In patent publication US20070104644A1, “Inhibitor imaging agents” (priority 2003, published 2007):
Blank lines part the entries; values can stand above or below the compound they belong to.

Assays:
MMP-1 = target: T1, MMP-1 (Homo sapiens, UniProt P03956); experiment: MMP-1 colorimetric assay kit (Biomol AK-404); format: biochemical
T1 sequence (P03956 100-469): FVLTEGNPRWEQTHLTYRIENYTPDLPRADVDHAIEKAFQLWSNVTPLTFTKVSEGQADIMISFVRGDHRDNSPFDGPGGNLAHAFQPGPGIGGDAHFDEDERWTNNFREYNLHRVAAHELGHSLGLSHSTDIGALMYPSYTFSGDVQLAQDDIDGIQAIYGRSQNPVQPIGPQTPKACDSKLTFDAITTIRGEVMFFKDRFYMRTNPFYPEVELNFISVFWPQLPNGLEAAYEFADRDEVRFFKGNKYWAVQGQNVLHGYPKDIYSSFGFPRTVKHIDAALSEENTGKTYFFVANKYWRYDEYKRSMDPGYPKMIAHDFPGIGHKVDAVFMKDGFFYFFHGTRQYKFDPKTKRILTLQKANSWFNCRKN
Method: (§1) Compounds were screened using the following commercially available Biomol assay kits: • MMP-1 colorimetric assay kit—Catalogue number AK-404, • MMP-2 colorimetric assay kit—Catalogue number AK-408, • MMP-8 calorimetric assay kit—Catalogue number AK-414, • MMP-9 calorimetric assay kit—Catalogue number AK-410, • MMP-12 colorimetric assay kit—Catalogue number AK-402, Which are available from Affiniti Research Products Ltd. (Palatine House, Matford Court, Exeter, EX2 8NL, UK).
(§2) Inhibitors were provided in powdered form, and stored at 4° C. For each inhibitor a 1 mM stock solution in DMSO was prepared, dispensed into 20 μl aliquots and these aliquots stored at −20° C. The stock solution was diluted to give 8 inhibitor concentrations (recommended: 50 μM, 5 μM, 500 nM, 50 nM, 5 nM, 500 pM, 50 pM and 5 pM). Dilutions were made in the kit assay buffer. A five-fold dilution of the inhibitor stocks is made on addition to the assay wells, therefore final concentration range was from 10 μM to 1 pM.
(§3) Details are provided with the commercial kit, but can be summarised as follows: • Prepare test compound dilutions as above, • Add assay buffer to plate, • Add test compounds to plate • Prepare standard kit inhibitor NNGH (see kit for dilution factor) • Add NNGH to control inhibitor wells • Prepare MMP enzyme (see kit for dilution factor) • Add MMP to plate • Incubate plate at 37° C. for ˜15 min • Prepare thiopeptolide substrate (see kit for dilution factor) • Add substrate to plate • Count every 2 min for 1 hr, 37° C., 414 nm on a Labsystems iEMS plate reader (for MMP-1 count every 30 seconds for 20 minutes).

MMP-2 = target: T2, MMP-2 (Homo sapiens, UniProt P08253); experiment: MMP-2 colorimetric assay kit (Biomol AK-408); format: biochemical
T2 sequence (P08253 110-660): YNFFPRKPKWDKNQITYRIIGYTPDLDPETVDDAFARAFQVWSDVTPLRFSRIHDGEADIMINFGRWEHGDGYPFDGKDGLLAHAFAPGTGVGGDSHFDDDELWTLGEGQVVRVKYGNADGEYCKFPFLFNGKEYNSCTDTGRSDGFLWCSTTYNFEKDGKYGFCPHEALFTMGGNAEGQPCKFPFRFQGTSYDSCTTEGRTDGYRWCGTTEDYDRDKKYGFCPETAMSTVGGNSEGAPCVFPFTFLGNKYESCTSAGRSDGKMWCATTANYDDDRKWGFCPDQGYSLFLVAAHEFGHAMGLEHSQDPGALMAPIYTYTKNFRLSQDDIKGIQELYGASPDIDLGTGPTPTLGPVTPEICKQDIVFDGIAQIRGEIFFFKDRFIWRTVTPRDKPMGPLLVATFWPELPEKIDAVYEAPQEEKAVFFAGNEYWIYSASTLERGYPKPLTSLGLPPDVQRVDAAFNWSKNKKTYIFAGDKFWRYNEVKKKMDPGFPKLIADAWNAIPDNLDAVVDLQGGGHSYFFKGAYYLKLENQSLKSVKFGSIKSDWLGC
Method: as §1, §2, §3

MMP-8 = MMP-8 (Homo sapiens, UniProt P22894); experiment: MMP-8 colorimetric assay kit (Biomol AK-414); format: biochemical
Method: as §1, §2, §3

MMP-9 = MMP-9 (Homo sapiens, UniProt P14780); experiment: MMP-9 colorimetric assay kit (Biomol AK-410); format: biochemical
Method: as §1, §2, §3

MMP-12 = MMP-12 (Homo sapiens, UniProt P39900); experiment: MMP-12 colorimetric assay kit (Biomol AK-402); format: biochemical
Method: as §1, §2, §3

[1] = test system: Lewis lung carcinoma (LLC) tumour; experiment: Biodistribution in LLC tumour model in vivo; design: species or system C57BL/6 mice
Method: 1×10^6 Lewis lung carcinoma (LLC) cells are injected subcutaneously into right inner thigh of C57BL/6 mice. Tumours were allowed to grow for 15 days prior to biodistribution being carried out.
Biodistribution studies were performed in the LLC tumour model.
Biodistribution was performed in the LLC tumour model of Example 23 with Compounds 46B and 48B.

[2] = test system: ApoE −/− mice, carotid artery; experiment: Biodistribution in ApoE ligation model of atherosclerosis (ligated and sham); format: in vivo
Description: ApoE −/− mice are transgenic knock-out mice, which lack the ApoE gene, and are therefore unable to regulate their plasma cholesterol levels. As a consequence ApoE mice develop atherosclerotic lesions, a process which is accelerated with feeding of high fat diet. Further acceleration of lesion development can be achieved by ligating the carotid artery, resulting in advanced lesion formation within 4 weeks of surgery and high fat diet feeding.
Two controls have been used for these experiments: (1) ApoE sham animals in which the mice undergo the same surgical intervention but the sture is only passed beneath the carotid and then removed and, (2) C57BL/6 ligtaed animals which undergo the same surgical ligation and high fat feeding as the ApoE ligated mice. Literature reports have stated that these animals do have some level of tissue remodelling, but with lower active MMP levels [Ivan et al, Circulation, 105, 2686-2691 (2002)].

[3] = ApoE Ligated, 5 min post injection
[4] = ApoE Ligated, 60 min post injection
[5] = ApoE Sham, 60 min post injection

Chain of MMP-9 (P14780 94-707): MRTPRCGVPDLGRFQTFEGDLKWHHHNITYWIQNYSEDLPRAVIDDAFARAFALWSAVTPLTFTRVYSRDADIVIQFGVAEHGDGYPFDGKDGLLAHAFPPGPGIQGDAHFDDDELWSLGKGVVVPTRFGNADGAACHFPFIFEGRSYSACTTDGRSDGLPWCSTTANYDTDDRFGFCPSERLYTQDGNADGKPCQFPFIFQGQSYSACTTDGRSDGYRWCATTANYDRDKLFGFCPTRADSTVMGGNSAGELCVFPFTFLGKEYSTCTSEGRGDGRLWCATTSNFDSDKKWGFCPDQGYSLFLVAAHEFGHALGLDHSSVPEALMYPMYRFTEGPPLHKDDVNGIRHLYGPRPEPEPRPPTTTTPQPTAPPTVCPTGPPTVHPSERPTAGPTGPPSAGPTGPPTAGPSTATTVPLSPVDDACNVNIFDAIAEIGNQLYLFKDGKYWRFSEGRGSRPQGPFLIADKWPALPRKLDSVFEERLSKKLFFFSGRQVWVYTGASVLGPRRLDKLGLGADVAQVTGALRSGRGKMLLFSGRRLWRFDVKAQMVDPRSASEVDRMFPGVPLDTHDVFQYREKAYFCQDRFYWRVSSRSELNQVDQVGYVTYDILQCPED
Chain of MMP-8 (P22894 101-467): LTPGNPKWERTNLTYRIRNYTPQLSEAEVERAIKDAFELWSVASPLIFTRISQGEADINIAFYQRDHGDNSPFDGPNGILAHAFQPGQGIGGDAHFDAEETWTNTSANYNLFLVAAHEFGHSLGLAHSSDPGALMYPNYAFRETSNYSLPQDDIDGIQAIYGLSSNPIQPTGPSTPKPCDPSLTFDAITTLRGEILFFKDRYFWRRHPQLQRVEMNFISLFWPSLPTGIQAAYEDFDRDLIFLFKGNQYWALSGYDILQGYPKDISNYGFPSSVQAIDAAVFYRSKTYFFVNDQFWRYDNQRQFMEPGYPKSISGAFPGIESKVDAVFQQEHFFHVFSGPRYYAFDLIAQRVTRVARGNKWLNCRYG
Chain of MMP-12 (P39900 106-470): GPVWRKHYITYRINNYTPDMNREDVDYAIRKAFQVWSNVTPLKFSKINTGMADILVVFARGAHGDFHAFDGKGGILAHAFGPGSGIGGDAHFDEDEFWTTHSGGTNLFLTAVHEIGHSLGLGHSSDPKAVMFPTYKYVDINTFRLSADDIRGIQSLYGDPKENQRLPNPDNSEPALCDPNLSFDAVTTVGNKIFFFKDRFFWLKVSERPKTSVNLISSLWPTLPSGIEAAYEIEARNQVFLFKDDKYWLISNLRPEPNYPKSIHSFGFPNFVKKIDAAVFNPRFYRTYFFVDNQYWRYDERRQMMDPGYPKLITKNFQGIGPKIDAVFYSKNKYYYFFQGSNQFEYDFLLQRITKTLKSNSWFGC

SMILES: NC(=O)[C@H](CCCCNC(=O)CON=Cc1ccc(F)cc1)NC(=O)CCN(C1(C(=O)NO)CCCC1)S(=O)(=O)c1ccc(Oc2ccc(F)cc2)cc1 [Compound 46]
Ki (MMP-1): 172 nM | Ki (MMP-2): 1.96 nM | Ki (MMP-8): 0.52 nM | Ki (MMP-9): 0.44 nM | Ki (MMP-12): 0.17 nM

SMILES: O=C(CCN(C1(C(=O)NO)CCCC1)S(=O)(=O)c1ccc(Oc2ccc(F)cc2)cc1)NCCc1ccc(O)c(I)c1 [Compound 24]
Ki (MMP-1): 4950 nM | Ki (MMP-2): 0.14 nM | Ki (MMP-8): 3.93 nM | Ki (MMP-9): 0.58 nM | Ki (MMP-12): 0.67 nM

Ki (MMP-2): 2.19 nM | Ki (MMP-9): 0.585 nM
SMILES: NCCCC[C@H](NC(=O)CCN(C1(C(=O)NO)CCCC1)S(=O)(=O)c1ccc(Oc2ccc(F)cc2)cc1)C(=O)N[C@@H](CCCCN)C(=O)N[C@@H](CCCCN)C(=O)N[C@@H](CCCCN)C(=O)N[C@@H](CCCCN)C(=O)NCCOCCOCCOCCNC(=O)COCC(=O)N[C@@H](Cc1ccc(O)c(I)c1)C(N)=O [Compound 42]

GI excretion [1]: low GI excretion | Urinary excretion [1]: High urinary excretion | % ID Urinary (urinary excretion), mean ([1]; 5 min post injection): 9.82 % ID | % ID/g Tumour, mean ([1]; 5 min post injection): 2.58 % ID/g | Tumour/Blood, mean ([1]; 5 min post injection): 0.16 | Tumour/Heart, mean ([1]; 5 min post injection): 0.48 | Tumour/Lung, mean ([1]; 5 min post injection): 0.30 | Tumour/Muscle, mean ([1]; 5 min post injection): 1.66 | % ID Urinary (urinary excretion), mean ([1]; 30 min post injection): 35.20 % ID | % ID/g Tumour, mean ([1]; 30 min post injection): 2.67 % ID/g | Tumour/Blood, mean ([1]; 30 min post injection): 0.26 | Tumour/Heart, mean ([1]; 30 min post injection): 0.75 | Tumour/Lung, mean ([1]; 30 min post injection): 0.43 | Tumour/Muscle, mean ([1]; 30 min post injection): 2.80 | % ID Urinary (urinary excretion), mean ([1]; 60 min post injection): 54.06 % ID | % ID/g Tumour, mean ([1]; 60 min post injection): 2.03 % ID/g | Tumour/Blood, mean ([1]; 60 min post injection): 0.43 | Tumour/Heart, mean ([1]; 60 min post injection): 1.31 | Tumour/Lung, mean ([1]; 60 min post injection): 0.69 | Tumour/Muscle, mean ([1]; 60 min post injection): 4.88 | % ID Urinary (urinary excretion), mean ([1]; 120 min post injection): 64.10 % ID | % ID/g Tumour, mean ([1]; 120 min post injection): 1.34 % ID/g | Tumour/Blood, mean ([1]; 120 min post injection): 0.53 | Tumour/Heart, mean ([1]; 120 min post injection): 1.54 | Tumour/Lung, mean ([1]; 120 min post injection): 0.55 | Tumour/Muscle, mean ([1]; 120 min post injection): 3.92 | % ID/G Carotid, mean [2, 3]: 10.32 % ID/G | Carotid/Blood, mean [2, 3]: 0.46 | Carotid/Heart, mean [2, 3]: 1.39 | Carotid/Lung, mean [2, 3]: 1.01 | % ID/G Carotid, mean [2, 4]: 10.85 % ID/G | Carotid/Blood, mean [2, 4]: 1.21 | Carotid/Heart, mean [2, 4]: 3.94 | Carotid/Lung, mean [2, 4]: 1.45 | % ID/G Carotid, mean [2, 5]: 2.91 % ID/G | Carotid/Blood, mean [2, 5]: 0.69 | Carotid/Heart, mean [2, 5]: 1.28 | Carotid/Lung, mean [2, 5]: 0.70
SMILES: NC(=O)[C@H](Cc1ccc(O)c([123I])c1)NC(=O)CCOCCOCCOCCOCCOCCOCCOCCOCCOCCOCCOCCNC(=O)CCOCCOCCOCCOCCOCCOCCOCCOCCOCCOCCOCCNC(=O)CCN(C1(C(=O)NO)CCCC1)S(=O)(=O)c1ccc(Oc2ccc(F)cc2)cc1 [Compound 32A]
Blood clearance / retention [1]: high initial blood retention, which cleared with time | Tumour uptake and retention [1]: Good tumour uptake and retention were seen up to 1 hour post injection

SMILES: NC(=O)[C@H](CCCCNC(=O)CON=Cc1ccc([18F])cc1)NC(=O)CCOCCOCCOCCOCCOCCOCCOCCOCCOCCOCCOCCNC(=O)CCOCCOCCOCCOCCOCCOCCOCCOCCOCCOCCOCCNC(=O)CCN(C1(C(=O)NO)CCCC1)S(=O)(=O)c1ccc(Oc2ccc(F)cc2)cc1 [Compound 48B]
% ID Urinary (urinary excretion), mean ([1]; 5 min post injection): 0.24 % ID | % ID/g Tumour, mean ([1]; 5 min post injection): 2.53 % ID/g | Tumour/Blood, mean ([1]; 5 min post injection): 0.11 | Tumour/Heart, mean ([1]; 5 min post injection): 0.40 | Tumour/Lung, mean ([1]; 5 min post injection): 0.26 | Tumour/Muscle, mean ([1]; 5 min post injection): 1.55 | % ID Urinary (urinary excretion), mean ([1]; 30 min post injection): 15.29 % ID | % ID/g Tumour, mean ([1]; 30 min post injection): 2.33 % ID/g | Tumour/Blood, mean ([1]; 30 min post injection): 0.24 | Tumour/Heart, mean ([1]; 30 min post injection): 0.84 | Tumour/Lung, mean ([1]; 30 min post injection): 0.47 | Tumour/Muscle, mean ([1]; 30 min post injection): 2.92 | % ID Urinary (urinary excretion), mean ([1]; 60 min post injection): 56.89 % ID | % ID/g Tumour, mean ([1]; 60 min post injection): 1.81 % ID/g | Tumour/Blood, mean ([1]; 60 min post injection): 0.51 | Tumour/Heart, mean ([1]; 60 min post injection): 1.69 | Tumour/Lung, mean ([1]; 60 min post injection): 0.95 | Tumour/Muscle, mean ([1]; 60 min post injection): 4.40 | % ID Urinary (urinary excretion), mean ([1]; 120 min post injection): 59.33 % ID | % ID/g Tumour, mean ([1]; 120 min post injection): 1.62 % ID/g | Tumour/Blood, mean ([1]; 120 min post injection): 0.41 | Tumour/Heart, mean ([1]; 120 min post injection): 1.52 | Tumour/Lung, mean ([1]; 120 min post injection): 0.77 | Tumour/Muscle, mean ([1]; 120 min post injection): 3.55 | % ID/G Carotid, mean [2, 3]: 12.01 % ID/G | Carotid/Blood, mean [2, 3]: 0.40 | Carotid/Heart, mean [2, 3]: 1.27 | Carotid/Lung, mean [2, 3]: 0.75 | % ID/G Carotid, mean [2, 4]: 10.34 % ID/G | Carotid/Blood, mean [2, 4]: 0.96 | Carotid/Heart, mean [2, 4]: 2.71 | Carotid/Lung, mean [2, 4]: 1.42 | % ID/G Carotid, mean [2, 5]: 2.37 % ID/G | Carotid/Blood, mean [2, 5]: 0.2 | Carotid/Heart, mean [2, 5]: 0.81 | Carotid/Lung, mean [2, 5]: 0.25
